# Measured values taken from patent publication US20100280061A1, “NOVEL ANALGESIC THAT BINDS FILAMIN A” (priority 2009, published 2010).
# Experiments:
# [1] = target: Bn-VAKGL pentapeptide of filamin A (FLNA) (Homo sapiens, UniProt P21333); test: FITC-NLX-based FLNA screening assay (FLNA peptide binding assay); conditions: 10 nM FITC-NLX; for Percent inhibition of FITC-NLX binding, 0.01 μM: 0.01 μM compound; for Percent inhibition of FITC-NLX binding, 0.1 μM: 0.1 μM compound; for Percent inhibition of FITC-NLX binding, 1 μM: 1 μM compound
# Protocol: The final assay volume is 100 μl.
# Compounds are tested in triplicate or quadruplicate.
# mu opiate receptor (MOR) = target: T1, mu opiate receptor (MOR) (Rattus norvegicus, UniProt P33535); test: [35S]GTPγS binding assay using striatal membranes (MOR agonist activity); format: biochemical; parameters: MOR agonist activity, [35S]GTPγS binding to Gαo, 0.1 μM / MOR agonist activity, [35S]GTPγS binding to Gαo, 1 μM / MOR agonist activity, [35S]GTPγS binding to Gαo, 1 μM + BFNA: reference not given here; conditions: for MOR agonist activity, [35S]GTPγS binding to Gαo, 0.1 μM: 0.1 μM compound; for MOR agonist activity, [35S]GTPγS binding to Gαo, 0.1 μM / MOR agonist activity, [35S]GTPγS binding to Gαo, 1 μM: striatal membranes; for MOR agonist activity, [35S]GTPγS binding to Gαo, 1 μM + BFNA: 1 μM compound + 1 μM β-funaltrexamine; for MOR agonist activity, [35S]GTPγS binding to Gαo, 1 μM: 1 μM compound
# T1 construct: from tissue; host or cells: striatal tissue (membrane preparation)
# mouse = test: Mouse hot-water tail-flick test; format: in vivo; conditions: orally administered
# Protocol: The mouse “tail flick” test was used to assay the relative antinociceptive activity of compositions containing a compound to be assayed.
# This assay was substantially that disclosed by Xie et al., 2005 J. Neurosci 25:409-416.
# The mouse hot-water tail-flick test was performed by placing the distal third of the tail in a water bath maintained at 52° C. The latency until tail withdrawal from the bath was determined and compared among the treatments. A 10 second cutoff was used to avoid tissue damage. Data are converted to percentage of antinociception by the following formula: (response latency−baseline latency)/(cutoff−baseline latency)×100 to generate dose-response curves. […] Relative potency was determined as a ratio of the A50 values.
# [2] = tested on: MOR-Gs/olf and MOR-Go coupling; test: Relative Gs/Go switching in organotypic striatal slice cultures (MOR-G protein coupling); format: cell-based, rat; conditions: for Go (MOR in anti-Gαo immunoprecipitates), average / Gs/Go-Coupled Ratio, average / Gs/olf (MOR in anti-Gαs/olf immunoprecipitates), average: striatal slice culture
# Protocol: The experiments described herein were carried out on organotypic striatal slices from male Sprague Dawley rats (200 to 250 g) purchased from Taconic (Germantown, N.Y.). Rats were housed two per cage and maintained on a regular 12-hour light/dark cycle in a climate-controlled room with food and water available ad libitum and sacrificed by rapid decapitation. All data are presented as mean±standard error of the mean. Treatment effects were evaluated by two-way ANOVA followed by Newman-Keul's test for multiple comparisons. Two-tailed Student's t test was used for post hoc pairwise comparisons. The threshold for significance was p<0.05.
# Striatal slices ([…]) were prepared using a Mcllwain tissue chopper (Mickle Laboratory Engineering Co., Surrey, UK). Slices were carefully transferred to sterile, porous culture inserts (0.4 μm, Millicell-CM) using the rear end of a glass Pasteur pipette. Each culture insert unit contained 2 slices and was placed into one well of the 12-well culture tray. […] The pH value was adjusted to 7.2 with HEPES buffer.
# Cultures were first incubated for 2 days to minimize the impact of injury from slice preparation. Incubator settings throughout the experiment were 36° C. with 5% CO2.
# Slices were returned to culture medium with normal serum after each drug exposure. Tissues were harvested 16 hours after the last drug exposure by centrifugation.
# For determination of MOR-G protein coupling, slices were homogenized to generate synaptic membranes. […] Following centrifugation, striatal membrane lysates were immunoprecipitated with immobilized anti-Gαs/olf or -Gαo conjugated with immobilized protein G-agarose beads. The level of MOR in anti-Gαs/olf or -Gαo immunoprecipitates was determined by Western blotting using specific anti-MOR antibodies.
# filamin A = filamin A (Homo sapiens, UniProt P21333); conditions: read-out: affinity of binding to filamin A; cited from earlier work
# [3] = 32 mg/kg, at about 20-30 minutes
# T1 sequence (P33535 whole entry): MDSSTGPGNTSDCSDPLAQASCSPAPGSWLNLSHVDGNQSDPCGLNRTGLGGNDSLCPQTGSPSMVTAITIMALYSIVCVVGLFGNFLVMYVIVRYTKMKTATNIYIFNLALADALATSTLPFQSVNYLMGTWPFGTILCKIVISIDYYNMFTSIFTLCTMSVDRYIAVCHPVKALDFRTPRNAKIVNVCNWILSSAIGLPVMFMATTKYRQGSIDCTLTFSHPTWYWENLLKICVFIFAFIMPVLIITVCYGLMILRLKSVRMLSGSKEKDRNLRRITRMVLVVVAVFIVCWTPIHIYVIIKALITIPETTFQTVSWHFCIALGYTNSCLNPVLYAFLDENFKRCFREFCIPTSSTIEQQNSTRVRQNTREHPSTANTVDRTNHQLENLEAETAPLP
# Sequence of filamin A (P21333 whole entry): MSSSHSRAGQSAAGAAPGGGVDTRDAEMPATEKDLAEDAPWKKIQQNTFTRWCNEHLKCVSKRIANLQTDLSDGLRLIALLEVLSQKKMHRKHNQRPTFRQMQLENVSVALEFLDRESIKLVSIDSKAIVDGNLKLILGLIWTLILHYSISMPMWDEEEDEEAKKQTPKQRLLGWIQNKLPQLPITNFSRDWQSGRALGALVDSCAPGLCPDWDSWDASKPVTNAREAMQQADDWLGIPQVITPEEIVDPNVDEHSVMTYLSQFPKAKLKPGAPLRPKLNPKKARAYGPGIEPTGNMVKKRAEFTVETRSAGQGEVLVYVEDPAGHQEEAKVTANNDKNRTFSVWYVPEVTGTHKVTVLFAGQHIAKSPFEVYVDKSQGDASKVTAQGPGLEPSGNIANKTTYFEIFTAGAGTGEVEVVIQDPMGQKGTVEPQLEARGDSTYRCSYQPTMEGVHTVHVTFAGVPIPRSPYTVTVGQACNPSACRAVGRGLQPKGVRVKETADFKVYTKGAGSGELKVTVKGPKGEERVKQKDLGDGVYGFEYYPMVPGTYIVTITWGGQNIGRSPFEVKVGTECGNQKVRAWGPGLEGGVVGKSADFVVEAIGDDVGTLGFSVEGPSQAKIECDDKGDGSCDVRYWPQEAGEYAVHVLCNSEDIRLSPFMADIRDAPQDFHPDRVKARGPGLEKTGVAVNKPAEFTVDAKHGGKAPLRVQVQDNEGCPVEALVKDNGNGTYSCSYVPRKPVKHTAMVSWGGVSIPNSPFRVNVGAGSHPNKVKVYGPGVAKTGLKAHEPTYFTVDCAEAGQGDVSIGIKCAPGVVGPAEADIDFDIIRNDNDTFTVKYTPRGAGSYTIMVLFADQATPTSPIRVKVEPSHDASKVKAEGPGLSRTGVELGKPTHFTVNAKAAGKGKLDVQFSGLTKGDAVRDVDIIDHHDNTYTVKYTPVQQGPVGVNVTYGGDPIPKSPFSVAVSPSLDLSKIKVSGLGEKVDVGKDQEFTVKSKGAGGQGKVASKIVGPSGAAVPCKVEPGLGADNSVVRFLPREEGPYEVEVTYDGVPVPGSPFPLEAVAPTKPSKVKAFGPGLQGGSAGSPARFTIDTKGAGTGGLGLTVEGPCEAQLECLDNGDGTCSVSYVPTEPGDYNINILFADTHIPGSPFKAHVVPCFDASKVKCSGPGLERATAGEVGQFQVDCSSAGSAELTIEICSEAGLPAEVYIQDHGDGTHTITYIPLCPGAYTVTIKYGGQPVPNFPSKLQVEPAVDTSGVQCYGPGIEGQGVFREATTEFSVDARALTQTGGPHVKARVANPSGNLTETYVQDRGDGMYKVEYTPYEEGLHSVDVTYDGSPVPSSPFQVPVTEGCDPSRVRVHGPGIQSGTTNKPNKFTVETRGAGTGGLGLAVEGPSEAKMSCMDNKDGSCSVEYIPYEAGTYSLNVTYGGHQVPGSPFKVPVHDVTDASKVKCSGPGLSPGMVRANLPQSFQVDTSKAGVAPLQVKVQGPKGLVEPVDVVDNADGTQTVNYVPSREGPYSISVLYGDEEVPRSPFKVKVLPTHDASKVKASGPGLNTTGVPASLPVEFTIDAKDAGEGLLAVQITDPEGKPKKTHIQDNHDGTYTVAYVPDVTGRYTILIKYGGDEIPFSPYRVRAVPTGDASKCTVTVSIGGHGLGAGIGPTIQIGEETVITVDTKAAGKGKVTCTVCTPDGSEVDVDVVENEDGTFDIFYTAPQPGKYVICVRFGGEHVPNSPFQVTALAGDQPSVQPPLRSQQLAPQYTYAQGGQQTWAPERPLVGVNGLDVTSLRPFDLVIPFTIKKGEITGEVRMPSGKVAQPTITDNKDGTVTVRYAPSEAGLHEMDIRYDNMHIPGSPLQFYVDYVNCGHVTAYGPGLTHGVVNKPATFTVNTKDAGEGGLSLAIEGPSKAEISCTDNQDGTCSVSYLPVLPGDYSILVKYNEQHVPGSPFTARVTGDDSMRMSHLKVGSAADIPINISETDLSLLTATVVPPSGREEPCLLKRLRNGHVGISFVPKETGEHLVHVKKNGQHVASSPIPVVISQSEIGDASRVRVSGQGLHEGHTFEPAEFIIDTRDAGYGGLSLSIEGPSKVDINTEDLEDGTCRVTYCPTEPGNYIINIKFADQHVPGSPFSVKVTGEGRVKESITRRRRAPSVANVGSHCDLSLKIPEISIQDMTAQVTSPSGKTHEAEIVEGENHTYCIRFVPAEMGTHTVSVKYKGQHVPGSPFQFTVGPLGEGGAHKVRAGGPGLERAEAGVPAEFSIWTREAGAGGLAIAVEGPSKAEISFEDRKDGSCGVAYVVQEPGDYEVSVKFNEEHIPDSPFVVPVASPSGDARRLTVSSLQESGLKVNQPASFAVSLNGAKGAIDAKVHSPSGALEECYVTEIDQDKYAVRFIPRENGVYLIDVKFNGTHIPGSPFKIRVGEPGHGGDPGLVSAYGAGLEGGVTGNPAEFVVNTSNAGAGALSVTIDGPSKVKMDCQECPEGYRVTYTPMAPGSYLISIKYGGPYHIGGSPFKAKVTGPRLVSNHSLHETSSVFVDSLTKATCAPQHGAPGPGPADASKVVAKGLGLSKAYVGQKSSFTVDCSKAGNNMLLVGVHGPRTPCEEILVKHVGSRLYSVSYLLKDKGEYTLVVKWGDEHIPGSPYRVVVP
SMILES,"Percent inhibition of FITC-NLX binding, 0.01 μM [1] [%]","Percent inhibition of FITC-NLX binding, 0.1 μM [1] [%]","Percent inhibition of FITC-NLX binding, 1 μM [1] [%]","MOR agonist activity, [35S]GTPγS binding to Gαo, 0.1 μM (mu opiate receptor (MOR)) [%]","MOR agonist activity, [35S]GTPγS binding to Gαo, 1 μM + BFNA (mu opiate receptor (MOR)) [%]","MOR agonist activity, [35S]GTPγS binding to Gαo, 1 μM (mu opiate receptor (MOR)) [%]",mean maximum antinoniception amount (mouse; [3]),other results
COc1cccc(OC)c1CC(=O)CC1c2c(cc3c(c2OC)OCO3)CC[N+]1(C)C.[I-] (centres unmarked) [B0036],46.6,52.8,62.1,61.4,65.1,120.6,about 20%,–
"COc1ccc2c3c1O[C@H]1C(=O)CC[C@@]4(O)[C@@H](C2)N(C)CC[C@]314 [Oxycodone, oxycodone, reference compound]",–,–,–,–,–,–,–,"switch of mu opioid receptors from Go to Gs coupling ([2]; 7 days of twice daily 1-hour exposures, organotypic striatal slice cultures): switch from Go to Gs coupling"
"O=C1CC[C@@]2(O)[C@H]3Cc4ccc(O)c5c4[C@@]2(CCN3CC2CC2)[C@H]1O5 [NTX, naltrexone]",–,–,–,–,–,–,–,Kd (filamin A): ~4 pM
"C=CCN1CC[C@]23c4c5ccc(O)c4O[C@H]2C(=O)CC[C@@]3(O)[C@H]1C5 [NLX, naloxone]",–,–,–,–,–,–,–,Kd (filamin A): ~4 pM
"CN1CC[C@]23c4c5ccc(O)c4O[C@H]2[C@@H](O)C=C[C@H]3[C@H]1C5 [morphine, reference compound]",–,–,–,–,–,–,–,"mean maximum antinoniception amount (mouse; 56 mg/kg, at about 20 minutes): about 43%; antinoniceptive effect (mouse; same dose (32 mg/kg), at thirty minutes): about 30%"
COc1ccccc1CC(=O)CC1c2c(cc3c(c2OC)OCO3)CC[N+]1(C)C (centres unmarked) [compound 5009],–,–,–,128.5,87.5,270.4,about 30%,–
COCOc1ccc(CCC(=O)CC2c3c(cc4c(c3OC)OCO4)CC[N+]2(C)C)cc1.[I-] (centres unmarked) [B0040],40.0,53.1,57.1,146.0,55.3,243.3,about 25%,"Go (MOR in anti-Gαo immunoprecipitates), average ([2]; 10 μM): 1419.8; Gs/Go-Coupled Ratio, average ([2]; 10 μM): 0.598; Gs/olf (MOR in anti-Gαs/olf immunoprecipitates), average ([2]; 10 μM): 839.0; Go (MOR in anti-Gαo immunoprecipitates), average ([2]; 100 μM): 1472.6; Gs/Go-Coupled Ratio, average ([2]; 100 μM): 0.332; Gs/olf (MOR in anti-Gαs/olf immunoprecipitates), average ([2]; 100 μM): 867.2"
COc1c2c(cc3c1C(CC(=O)c1ccc(O)c(C)c1)[N+](C)(C)CC3)OCO2 (centres unmarked) [B0002],40.2,46.4,55.0,165.7,101.4,219.0,–,–
COc1c2c(cc3c1C(CC(=O)Cc1ccc(Br)cc1)[N+](C)(C)CC3)OCO2 (centres unmarked) [B0011],40.9,50.3,55.8,158.6,78.0,212.6,–,–
COc1cc(OC)cc(C(=O)CC2c3c(cc4c(c3OC)OCO4)CC[N+]2(C)C)c1.[I-] (centres unmarked) [B0035],45.4,44.7,51.0,188.0,74.2,248.7,–,–
